In patent EP4417602A1, “SUBSTITUTED PYRAZOLE CARBOXAMIDES, SALTS THEREOF AND THEIR USE AS HERBICIDALLY ACTIVE SUBSTANCES” (Bayer AG, priority 2023, dated 2024):

Tests used:
TRZAS = experiment: D. Pre-emergence effects on crop plants (Tables D); assay type: in vivo, Triticum aestivum; conditions: crop plant
From the text: Seeds of mono- and dicotyledonous weed plants and crop plants were sown, in plastic or organic planting pots, in sandy loam and covered with soil. The compounds according to the invention, formulated in the form of wettable powders (WP) or as emulsifiable concentrates (EC), were applied to the surface of the covering soil as aqueous suspension or emulsion, with the addition of 0.5% of an additive, at an application rate of 6001 of water/ha (converted).
Following treatment, the pots were placed in a greenhouse and kept under optimum growth conditions for the test plants. The visual grading of the damage to the test plants was carried out after ca. 3 weeks in comparison to untreated controls (herbicidal effect in percent (%): 100% effect = plants have died off, 0% effect = as control plants).
Tables D1 to D5 below show the effects of various compounds of the general formula (I) according to Table 1 on various crop plants and an application rate corresponding to 320 g/ha or below obtained by the experimental procedure mentioned above in Biological Examples, Section C. Table D1a: pre-emergence activity at 320g/ha against ZEAMX in %

ALOMY = experiment: B. Herbicidal post-emergence action on harmful plants (Tables B); assay type: in vivo, Alopecurus myosuroides
Description: Seeds of mono- and dicotyledonous weed plants were placed in plastic pots in sandy loam soil (doubly sown with in each case one species of mono- or dicotyledonous weed plants per pot), covered with soil and cultivated in a greenhouse under controlled growth conditions. 2 to 3 weeks after sowing, the test plants were treated at the one-leaf stage. The compounds of the invention, formulated in the form of wettable powders (WP) or as emulsion concentrates (EC), were applied onto the green parts of the plants as aqueous suspension or emulsion with addition of 0.5% additive at a water application rate of 600 liters per hectare (converted). After the test plants had been kept in the greenhouse under optimum growth conditions for about 3 weeks, the activity of the preparations was rated visually in comparison to untreated controls. For example, 100% activity = the plants have died, 0% activity = like control plants. Tables B1 to B12, below, show the effects of selected compounds of the general formula (I) according to table 1 on various harmful plants and an application rate corresponding to 1280 g/ha or below obtained by the experimental procedure mentioned above. Table B1a: post-emergence activity at 1280g/ha against ABUTH in %

DIGSA = experiment: as above; assay type: in vivo, Digitaria sanguinalis
Outline: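 Activity was scored visually as % damage (100% = dead, 0% = like untreated) about 3 weeks after treatment. Plants at the one-leaf stage, 2-3 weeks old, were sprayed with WP/EC formulations plus 0.5% additive (600 L/ha water, up to 1280 g/ha). Plants were grown in sandy loam in a greenhouse.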

ORYZA = experiment: F. Post-emergence effects on crop plants (Tables F); assay type: in vivo, Oryza sativa; conditions: crop plant
From the text: Seeds of mono- and dicotyledonous weed plants and crop plants were sown, in plastic or organic planting pots, in sandy loam, covered with soil and grown in a greenhouse under controlled growth conditions. 2 to 3 weeks after sowing, the test plants were sprayed in the single-leaf stage. The compounds according to the invention, formulated in form of wettable powders (WP) or as emulsifiable concentrates (EC), were sprayed onto the green plant parts as aqueous suspension or emulsion, with the addition of 0.5% of an additive, at an application rate of 6001 of water/ha (converted). The test plants were placed in the greenhouse for ca. 3 weeks under optimum growth conditions, and then the effect of the preparations was assessed visually in comparison with untreated controls (herbicidal effect in percent (%): 100% effect = plants have died off, 0% effect = as control plants). Tables F1 to F5 below show the effects of selected compounds of the general formula (I) according to table 1 on various crop plants and an application rate corresponding to 320 g/ha or below obtained by the experimental procedure mentioned above. Table […]: post-emergence activity at 320g/ha against ZEAMX in %

AMARE = experiment: A. Herbicidal pre-emergence action on harmful plants (Tables A); assay type: in vivo, Amaranthus retroflexus
Outline: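 Greenhouse pre-emergence test: compound applied to the soil surface at 1280 g/ha or below, and herbicidal effect rated visually at ca. 3 weeks on a 0–100% scale against untreated plants.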

VERPE = experiment: C. Herbicidal pre-emergence action, weed and crop plants (Tables C); assay type: in vivo, Veronica persica; conditions: application rate 320 g/ha; Table C11
From the text: Seeds of mono- and dicotyledonous weed plants and crop plants were sown, in plastic or organic planting pots, in sandy loam and covered with soil. The compounds according to the invention, formulated in the form of wettable powders (WP) or as emulsifiable concentrates (EC), were applied to the surface of the covering soil as aqueous suspension or emulsion, with the addition of 0.5% of an additive, at an application rate of 6001 of water/ha (converted). Following treatment, the pots were placed in a greenhouse and kept under optimum growth conditions for the test plants. The visual grading of the damage to the test plants was carried out after ca. 3 weeks in comparison to untreated controls (herbicidal effect in percent (%): 100% effect = plants have died off, 0% effect = as control plants). Tables C1 to C12 below show the effects of selected compounds of the general formula (I) according to table 1 on various harmful plants and an application rate corresponding to 320 g/ha or below obtained by the experimental procedure mentioned above. Table C1: pre-emergence activity at 320g/ha against KCHSC in %

[1] = application rate 80 g/ha, Table D2b
[2] = application rate 320 g/ha, Table B9b
[3] = application rate 1280 g/ha, Table B9a
[4] = application rate 1280 g/ha, Table B12a
[5] = application rate 1280 g/ha, visual grading after ca. 3 weeks vs untreated controls, 100% = plants have died off, 0% = as control plants
[6] = application rate 320 g/ha, Table A8b

Structure (SMILES)	pre-emergence activity against TRZAS (TRZAS; [1])	post-emergence activity against ALOMY (ALOMY; [3])	post-emergence activity against DIGSA (DIGSA; [4])	post-emergence activity against ORYZA in % (ORYZA; application rate 80 g/ha)	pre-emergence activity against AMARE (AMARE; [5])	pre-emergence activity against VERPE (VERPE)	also measured
Cn1cc(C(=O)N2CCCC2Cc2ccccc2F)c(COc2ccccc2)n1 (racemic) [Example I-006]	0%	90%	90%	0%			pre-emergence activity against TRZAS (TRZAS; application rate 320 g/ha, Table D2a): 20%; post-emergence activity against ALOMY (ALOMY; [2]): 90%; post-emergence activity against ORYZA in % (ORYZA; application rate 320 g/ha): 0%
Cn1cc(C(=O)N2CCCC2Cc2ccc(F)cc2F)c(COc2ccccc2)n1 (racemic) [Example I-008]	10%	90%		0%			post-emergence activity against ORYZA in % (ORYZA; application rate 320 g/ha): 0%
COCc1nn2c(c1C(=O)N1CCCC1Cc1ccccc1F)CCC2 (racemic) [Example I-022]	0%						
C=C(c1ccccc1F)C1CCCN1C(=O)c1cn(C)nc1COC (racemic) [Example I-023]			90%		90%		
COCc1c(C(=O)N2CCCC2Cc2ccccc2Cl)cnn1C (racemic) [Example I-170]		90%		0%		80%	
COCc1nn(C)cc1C(=O)N1CCCC1Cc1ccccc1F (single isomer, unassigned) [Example I-003]		100%	100%	0%	90%	80%	post-emergence activity against ALOMY (ALOMY; application rate 80 g/ha, Table B9c): 100%; post-emergence activity against ALOMY (ALOMY; [2]): 100%; post-emergence activity against DIGSA (DIGSA; application rate 80 g/ha, Table B12c): 100%; post-emergence activity against DIGSA (DIGSA; application rate 320 g/ha, Table B12b): 100%; pre-emergence activity against AMARE (AMARE; [6]): 90%
COCc1nn(C)cc1C(=O)N1CCCC1C(O)c1ccccc1F (single isomer, unassigned) [Example I-053]						80%	
COCc1c(C(=O)N2CCCC2Cc2ccccc2F)cnn1C (single isomer, unassigned) [Example I-157]				10%	90%	80%	pre-emergence activity against AMARE (AMARE; [6]): 90%
